Reference: US8455492B2, “Methods for treating retinal diseases” (Allergan, Inc., priority 1995, dated 2013)
Where two headings read alike, the source gives them in different places.

What was measured:
[1] = test system: retina; settings: FIG. 5; topical 10 μl one hour before ischemia insult; ERG one week after insult
Procedure: FIG. 5 is a bar graph showing the results of a study to determine the topical efficacy of brimonidine in neuroprotection. The rat acute retinal ischemia model was used to provide the noxious action. Brimonidine was applied topically one hour before ischemia insult, 10 μl to one eye, 10 μl saline to the other eye. The ERG (electroretinogram) was measured one week after the insult.

[2] = test system: intraocular pressure; settings: rabbits; topical to the cornea; cited from earlier work
[3] = test system: intraocular pressure; settings: cats; topical to the cornea; cited from earlier work
[4] = test system: intraocular pressure; settings: monkeys; topical to the cornea; cited from earlier work
[5] = test system: rat hippocampal neuronal cultures; experiment: Glutamate induced excitotoxic effects on nerve cells (percentage of dead cells, trypan blue); assay type: cell-based; settings: FIG. 1; day 8; 1 mM glutamate; AGN-191103 0.1 nM, MK-801 10 nM
Procedure: Low-density rat hippocampal neuronal cultures were prepared by the procedure of Goslin and Banker. […] Coverslips (13 mm) were placed in staining racks, rinsed in distilled water (four rinses, 1 min. each) to remove dust and transferred to concentrated HNO3 for 36 hours. Coverslips were rinsed in distilled water (four changes over 3 hours) and sterilized with dry heat (overnight at 225° C.). The coverslips were transferred to 24-well dishes, one coverslip per well. To support the coverslips above the glia during coculturing, paraffin dots were placed on dishes, and UV irradiation (30 min.) was applied before the coverslips were introduced. One mg/mL of poly-L-lysine hydrobromide (PLL) (Sigma) (MW 30,000-70,000) was dissolved in borate buffer (0.1 M, pH 8.5), filtered, sterilized and used to cover each coverslip overnight. The PLL was removed, coverslips were rinsed in distilled water (two washes, 2 hrs. each), plating medium [Eagle's MEM with Earle's salts containing extra glucose (600 mg/L) and 10% horse serum] was added and the dishes were stored in an incubator. […]
After 24 hrs. of incubation, cells were stained with trypan blue. Live and dead neurons were counted from randomly selected culture fields (5 fields from each coverslip). Percentage of dead cells was calculated.

[6] = test system: rat optic nerve; settings: FIG. 3, optic nerve crush in rats

Brc1c(NC2=NCCN2)ccc2nccnc12 [brimonidine]
topical neuroprotection (percent of ERG signal recovery) [1]: provides topical neuroprotection in a dose dependent manner | reduction of intraocular pressure [2]: effective in reducing intraocular pressure | reduction of intraocular pressure [3]: effective in reducing intraocular pressure | reduction of intraocular pressure [4]: effective in reducing intraocular pressure

C[C@]12N[C@H](Cc3ccccc31)c1ccccc12 [MK-801, dizocilpine]
protection of cells from glutamate induced neurotoxicity (percentage of cells killed) [5]: comparable effects in protecting cells from glutamate induced neurotoxicity

Clc1cccc(Cl)c1N=C1NCCN1 [clonidine]
maximal CAP response relative to AGN 191103 [6]: about half the maximal CAP response of AGN 191013 | neuroprotective activity (maximal CAP amplitude) versus vehicle ([6]; four concentrations): some neuroprotective activity over vehicle alone
